What follows are molecules tested on microorganism associated with Morgellons disease (assay: Drug sensitivity / growth inhibition testing of the cultured microorganism). Details: antibiotic added to solution.
Assay type: cell-based
From the text: In other studies, Itraconazole and Posaconazole were each added to the culture medium followed by the organism.

| Molecule | inhibitory effect on organism growth |
| --- | --- |
| CN(C)[C@@H]1C(O)=C(C(N)=O)C(=O)[C@@]2(O)C(O)=C3C(=O)c4c(O)cccc4[C@@](C)(O)[C@H]3C[C@@H]12 [Tetracycline] | no inhibitory effect |
| Neomycin | no inhibitory effect |
| Penicillin | no inhibitory effect |
| CC[C@H]1OC(=O)[C@H](C)[C@@H](O[C@H]2C[C@@](C)(OC)[C@@H](O)[C@H](C)O2)[C@H](C)[C@@H](O[C@@H]2O[C@H](C)C[C@H](N(C)C)[C@H]2O)[C@](C)(O)C[C@@H](C)C(=O)[C@H](C)[C@@H](O)[C@]1(C)O [Erythromycin] | no inhibitory effect |
| O=C(O)c1cn(C2CC2)c2cc(N3CCNCC3)c(F)cc2c1=O [Ciprofloxacin] | no inhibitory effect |
| CC1(C)S[C@@H]2[C@H](NC(=O)[C@H](N)c3ccccc3)C(=O)N2[C@H]1C(=O)O [Ampicillin] | no inhibitory effect |

Same assay, conditions: antifungal agent added to the culture medium followed by the organism

| Molecule | inhibition of growth |
| --- | --- |
| CC[C@@H]([C@H](C)O)n1ncn(-c2ccc(N3CCN(c4ccc(OC[C@@H]5CO[C@@](Cn6cncn6)(c6ccc(F)cc6F)C5)cc4)CC3)cc2)c1=O [Posaconazole] | Neither antifungal agent was shown to inhibit growth |
